Reference: ChEMBL document CHEMBL3217709, “SAR mining and its application to the design of TRPA1 antagonists” (Medchemcomm, 2012)
pIC50: −log10 of the molar value.

Experiments:
Adenosine receptor A2b = biological target: T1, Adenosine receptor A2b (Homo sapiens, UniProt P29275); assay: Antagonist activity at adenosine A2B receptor (unknown origin)
T1 sequence (P29275 whole entry): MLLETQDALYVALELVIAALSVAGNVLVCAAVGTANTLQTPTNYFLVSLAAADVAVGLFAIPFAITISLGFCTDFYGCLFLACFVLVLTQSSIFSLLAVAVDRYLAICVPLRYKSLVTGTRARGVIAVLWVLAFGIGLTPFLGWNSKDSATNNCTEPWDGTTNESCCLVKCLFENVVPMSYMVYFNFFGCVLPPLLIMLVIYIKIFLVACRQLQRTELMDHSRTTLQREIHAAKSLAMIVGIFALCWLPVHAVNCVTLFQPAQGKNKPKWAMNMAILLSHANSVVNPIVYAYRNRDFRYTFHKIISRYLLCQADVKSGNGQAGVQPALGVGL

[1] = biological target: 5-hydroxytryptamine receptor 4 (Homo sapiens, UniProt Q13639); assay: Antagonist activity at […] receptor (unknown origin)
Coagulation factor X = Coagulation factor X (Homo sapiens, UniProt P00742); assay: Inhibition of factor-10a (unknown origin)
[2] = biological target: Transient receptor potential cation channel subfamily A member 1 (Homo sapiens, UniProt O75762); assay: Antagonist activity at TRPA1 (unknown origin)
Sequence of Transient receptor potential cation channel subfamily A member 1 (O75762 whole entry): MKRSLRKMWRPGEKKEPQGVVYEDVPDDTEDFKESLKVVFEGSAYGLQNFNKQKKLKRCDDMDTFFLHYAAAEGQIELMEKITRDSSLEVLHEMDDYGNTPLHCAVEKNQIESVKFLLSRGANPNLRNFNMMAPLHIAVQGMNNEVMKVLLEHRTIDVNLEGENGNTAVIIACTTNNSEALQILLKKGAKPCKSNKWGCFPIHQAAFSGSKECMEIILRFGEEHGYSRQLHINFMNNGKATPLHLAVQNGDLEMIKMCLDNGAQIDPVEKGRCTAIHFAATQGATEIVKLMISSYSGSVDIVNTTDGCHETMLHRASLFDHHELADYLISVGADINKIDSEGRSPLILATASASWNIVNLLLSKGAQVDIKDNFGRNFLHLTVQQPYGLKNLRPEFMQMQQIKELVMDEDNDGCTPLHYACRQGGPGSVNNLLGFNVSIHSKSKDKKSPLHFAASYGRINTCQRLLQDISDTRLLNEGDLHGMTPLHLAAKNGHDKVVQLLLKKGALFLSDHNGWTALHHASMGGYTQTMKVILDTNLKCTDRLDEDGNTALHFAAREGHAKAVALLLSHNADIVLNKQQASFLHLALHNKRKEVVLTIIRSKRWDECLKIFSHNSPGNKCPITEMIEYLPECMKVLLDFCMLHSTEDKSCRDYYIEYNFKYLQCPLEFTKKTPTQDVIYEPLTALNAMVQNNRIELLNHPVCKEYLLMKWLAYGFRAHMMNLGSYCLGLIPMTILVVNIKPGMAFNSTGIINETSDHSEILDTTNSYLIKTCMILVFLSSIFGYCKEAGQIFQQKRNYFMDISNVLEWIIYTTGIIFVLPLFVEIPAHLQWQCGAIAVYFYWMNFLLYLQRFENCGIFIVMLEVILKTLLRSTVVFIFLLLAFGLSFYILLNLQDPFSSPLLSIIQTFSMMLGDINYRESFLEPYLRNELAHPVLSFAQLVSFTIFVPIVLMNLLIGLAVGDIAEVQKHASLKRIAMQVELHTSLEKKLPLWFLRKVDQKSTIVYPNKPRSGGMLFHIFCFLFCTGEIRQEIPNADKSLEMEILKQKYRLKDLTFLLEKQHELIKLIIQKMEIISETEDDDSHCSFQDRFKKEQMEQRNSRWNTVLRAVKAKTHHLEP

Sequence of 5-hydroxytryptamine receptor 4 (Q13639 whole entry): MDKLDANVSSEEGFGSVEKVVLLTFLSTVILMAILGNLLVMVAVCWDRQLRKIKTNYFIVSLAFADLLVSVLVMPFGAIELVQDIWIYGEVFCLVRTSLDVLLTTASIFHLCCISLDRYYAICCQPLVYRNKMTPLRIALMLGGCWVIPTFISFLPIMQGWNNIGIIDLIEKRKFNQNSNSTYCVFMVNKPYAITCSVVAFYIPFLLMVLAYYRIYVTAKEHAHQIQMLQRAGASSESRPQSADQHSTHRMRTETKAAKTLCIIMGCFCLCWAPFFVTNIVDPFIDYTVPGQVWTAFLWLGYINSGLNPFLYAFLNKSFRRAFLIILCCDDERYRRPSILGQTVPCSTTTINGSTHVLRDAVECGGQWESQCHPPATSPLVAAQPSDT
Sequence of Coagulation factor X (P00742 41-179 limits assumed): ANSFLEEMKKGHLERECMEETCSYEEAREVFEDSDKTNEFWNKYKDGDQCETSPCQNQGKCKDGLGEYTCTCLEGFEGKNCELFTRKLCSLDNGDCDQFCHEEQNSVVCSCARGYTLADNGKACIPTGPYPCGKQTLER
Sequence of Coagulation factor X (P00742 235-488 limits assumed): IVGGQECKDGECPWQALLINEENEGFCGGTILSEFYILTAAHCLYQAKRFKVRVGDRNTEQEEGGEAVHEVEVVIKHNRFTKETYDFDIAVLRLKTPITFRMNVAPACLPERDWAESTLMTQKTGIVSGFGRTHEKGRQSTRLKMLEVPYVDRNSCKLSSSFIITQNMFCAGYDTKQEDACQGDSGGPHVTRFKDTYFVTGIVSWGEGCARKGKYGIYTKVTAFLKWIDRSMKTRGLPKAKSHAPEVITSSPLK

SMILES | pIC50 [1] | pIC50 [2] | other results
COc1cc(N)c(Cl)cc1C(=O)OCCN1CCN(c2ccccc2OC)CC1 | 7.19 |  | pIC50 (Adenosine receptor A2b): 6.90
COc1cc(N)c(Cl)cc1C(=O)OCCN1CCN(c2ccc(Cl)cc2)CC1 | 6.15 |  | pIC50 (Adenosine receptor A2b): 5.44
COc1cc(N)c(Cl)cc1C(=O)OCCN1CCN(c2ccccc2Cl)CC1 | 6.53 |  | pIC50 (Adenosine receptor A2b): 5.23
COc1cc(N)c(Cl)cc1C(=O)OCCN1CCN(c2cccc(Cl)c2)CC1 | 6.79 |  | pIC50 (Adenosine receptor A2b): 5.68
Cc1cc(C(=O)Nc2ccc(-c3ccccc3C(F)(F)F)cc2)n(-c2cccc(C(=N)N)c2)n1 |  |  | pIC50 (Coagulation factor X): 10.40
COc1cc(N)c(Cl)cc1C(=O)OCCN1CCN(c2ccccc2-c2cnccn2)CC1 | 8.85 |  | 
Cc1c(=O)n(Cc2ccccc2)c(=O)n2cc(C(=O)NCc3ccc4[nH]ccc4c3)sc12 |  | 6.17 | 
Cc1c(=O)n(Cc2ccccc2)c(=O)n2cc(C(=O)NCc3ccncc3)sc12 |  | 5.93 | 
Cc1ccc(CNC(=O)c2cn3c(=O)n(Cc4ccccc4)c(=O)c(C)c3s2)cc1 |  | 5.86 | 
Cc1c(=O)n(Cc2ccccc2)c(=O)n2cc(C(=O)NCc3ccc4nsnc4c3)sc12 |  | 5.84 | 
Cc1c(=O)n(Cc2ccccc2)c(=O)n2cc(C(=O)NCc3cccnc3)sc12 |  | 5.80 | 
COc1cc(CNC(=O)c2cn3c(=O)n(Cc4ccccc4)c(=O)c(C)c3s2)ccn1 |  | 5.76 | 
Cc1c(=O)n(Cc2ccccc2)c(=O)n2cc(C(=O)NCc3ccccc3)sc12 |  | 5.73 | 
Cc1c(=O)n(Cc2ccccc2)c(=O)n2cc(C(=O)NCc3ccc(F)cc3)sc12 |  | 5.65 | 
Cc1c(=O)n(Cc2ccccc2)c(=O)n2cc(C(=O)NCc3ccc(Cl)cc3)sc12 |  | 5.65 | 
Cc1c(=O)n(Cc2ccccc2)c(=O)n2cc(C(=O)NCc3ccccn3)sc12 |  | 5.46 | 
Cc1c(=O)n(Cc2ccccc2)c(=O)n2cc(C(=O)N3CC[C@@H](Oc4ccccc4C(F)(F)F)C3)sc12 |  | 7.00 | 
Cc1c(=O)n(Cc2ccccc2)c(=O)n2cc(C(=O)N3CC[C@H](Oc4ccccc4C(F)(F)F)C3)sc12 |  | 6.82 | 
Cc1c(=O)n(Cc2ccccc2)c(=O)n2cc(C(=O)N3CCC(Oc4ccccc4F)CC3)sc12 |  | 6.70 | 
Cc1c(=O)n(Cc2ccccc2)c(=O)n2cc(C(=O)N3CCC(Oc4cccc(Cl)c4)CC3)sc12 |  | 6.70 | 
Cc1c(=O)n(Cc2ccccc2)c(=O)n2cc(C(=O)N3CCC(c4ccccc4F)CC3)sc12 |  | 6.40 | 
COc1cccc(N2CCN(CCOC(=O)c3cc(Cl)c(N)cc3OC)CC2)c1 | 8.52 |  | pIC50 (Adenosine receptor A2b): 7.30
COc1ccc(N2CCN(CCOC(=O)c3cc(Cl)c(N)cc3OC)CC2)cc1 | 7.74 |  | pIC50 (Adenosine receptor A2b): 6.60
COc1cc(N)c(Cl)cc1C(=O)OCCN1CCN(c2ccccc2F)CC1 | 7.77 |  | pIC50 (Adenosine receptor A2b): 6.19
Cc1cc(C(=O)Nc2ccc(-c3ccccc3S(C)(=O)=O)cc2)n(-c2cccc(C(=N)N)c2)n1 |  |  | pIC50 (Coagulation factor X): 11.10
